Experimental data as given in the supplement of paper PMC11628255, “Interference of metal ions on the bioluminescent signal of firefly, Renilla, and NanoLuc luciferases in high-throughput screening assays” (Frontiers in Chemistry, 2024).
± gives the standard deviation of the averaged measurements.

Experiments:
Test in all cases: normalised percent inhibition of luminescence (vs positive and negative controls); higher = stronger inhibition
[1] = system: Renilla luciferase (RLuc)
Method: (§1)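 Concentration-response (>=11 concentrations) of metal salts on purified FLuc, NLuc or RLuc luminescence in screening (SC) or 100 mM HEPES (H) buffer; salt pre-incubated with enzyme 10 min at RT, read 10 min after substrate. Normalised percent inhibition vs plate positive (PTC-124, isradipine, BTS) and DMSO negative controls; triplicate wells.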

[2] = system: NanoLuc luciferase (NLuc)
Method: as §1

[3] = system: firefly luciferase (FLuc)
Method: as §1

[4] = metal salt concentration 0.0001 mM, 100 mM HEPES buffer
[5] = metal salt concentration 0.00025 mM, 100 mM HEPES buffer
[6] = metal salt concentration 0.0005 mM, 100 mM HEPES buffer
[7] = metal salt concentration 0.001 mM, 100 mM HEPES buffer
[8] = metal salt concentration 0.002 mM, screening conditions buffer
[9] = metal salt concentration 0.005 mM, screening conditions buffer
[10] = metal salt concentration 0.01 mM, screening conditions buffer
[11] = metal salt concentration 0.02 mM, screening conditions buffer
[12] = metal salt concentration 0.025 mM, 100 mM HEPES buffer
[13] = metal salt concentration 0.05 mM, 100 mM HEPES buffer
[14] = metal salt concentration 0.05 mM, screening conditions buffer
[15] = metal salt concentration 0.1 mM, 100 mM HEPES buffer
[16] = metal salt concentration 0.1 mM, screening conditions buffer
[17] = metal salt concentration 0.2 mM, screening conditions buffer
[18] = metal salt concentration 0.5 mM, 100 mM HEPES buffer
[19] = metal salt concentration 0.5 mM, screening conditions buffer
[20] = metal salt concentration 1 mM, 100 mM HEPES buffer
[21] = metal salt concentration 1 mM, screening conditions buffer
[22] = metal salt concentration 2.5 mM, 100 mM HEPES buffer
[23] = metal salt concentration 2.5 mM, screening conditions buffer
[24] = metal salt concentration 5 mM, 100 mM HEPES buffer
[25] = metal salt concentration 5 mM, screening conditions buffer

## O=S(=O)([O-])[O-].[Fe+2] [iron(II) sulfate]
[1]; [4]
  normalised percent inhibition: 41.8 ± 57%
[1]; [5]
  normalised percent inhibition: -25.1 ± 17%
[1]; [6]
  normalised percent inhibition: -18.6 ± 45%
[1]; [7]
  normalised percent inhibition: -4.06 ± 18%
[1]; [8]
  normalised percent inhibition: 2.02 ± 10%
[1]; [9]
  normalised percent inhibition: 11 ± 4.1%
[1]; [10]
  normalised percent inhibition: 18.2 ± 2.5%
[1]; [11]
  normalised percent inhibition: 17.5 ± 9.7%
[1]; [12]
  normalised percent inhibition: 28.6 ± 12%
[1]; [13]
  normalised percent inhibition: 50.9 ± 12%
[1]; [14]
  normalised percent inhibition: 3.55 ± 9.2%
[1]; [15]
  normalised percent inhibition: 85.8 ± 11%
[1]; [16]
  normalised percent inhibition: 58.5 ± 6.4%
[1]; [17]
  normalised percent inhibition: 74.4 ± 2.4%
[1]; [18]
  normalised percent inhibition: 104.9 ± 0.56%
[1]; [19]
  normalised percent inhibition: 93.3 ± 5.9%
[1]; [20]
  normalised percent inhibition: 105 ± 3.1%
[1]; [21]
  normalised percent inhibition: 96 ± 1.3%
[1]; [22]
  normalised percent inhibition: 104 ± 3%
[1]; [23]
  normalised percent inhibition: 103.6 ± 0.89%
[1]; [24]
  normalised percent inhibition: 107 ± 1.1%
[1]; [25]
  normalised percent inhibition: 105 ± 1.6%
[2]; [4]
  normalised percent inhibition: -2.4 ± 0.95%
[2]; [5]
  normalised percent inhibition: 0.242 ± 1.3%
[2]; [6]
  normalised percent inhibition: 3.64 ± 1.7%
[2]; [7]
  normalised percent inhibition: 0.251 ± 4.1%
[2]; [8]
  normalised percent inhibition: -6.27 ± 4.7%
[2]; [9]
  normalised percent inhibition: 5.45 ± 5.8%
[2]; [10]
  normalised percent inhibition: 3.08 ± 4.9%
[2]; [11]
  normalised percent inhibition: 7.25 ± 4.3%
[2]; [12]
  normalised percent inhibition: 3.97 ± 5%
[2]; [13]
  normalised percent inhibition: 6.24 ± 1.8%
[2]; [14]
  normalised percent inhibition: 11.5 ± 2.6%
[2]; [15]
  normalised percent inhibition: 19.9 ± 2.1%
[2]; [16]
  normalised percent inhibition: 37.5 ± 3%
[2]; [17]
  normalised percent inhibition: 49.5 ± 7.2%
[2]; [18]
  normalised percent inhibition: 67.9 ± 3.6%
[2]; [19]
  normalised percent inhibition: 81.1 ± 2%
[2]; [20]
  normalised percent inhibition: 87.7 ± 2.2%
[2]; [21]
  normalised percent inhibition: 138 ± 2.5%
[2]; [22]
  normalised percent inhibition: 101 ± 0.26%
[2]; [23]
  normalised percent inhibition: 157.3 ± 1.2%
[2]; [24]
  normalised percent inhibition: 101.93 ± 0.031%
[2]; [25]
  normalised percent inhibition: 158.9 ± 1.2%
[3]; [4]
  normalised percent inhibition: -15.4 ± 19%
[3]; [5]
  normalised percent inhibition: -21.3 ± 21%
[3]; [6]
  normalised percent inhibition: -14.6 ± 9.3%
[3]; [7]
  normalised percent inhibition: 25.9 ± 67%
[3]; [8]
  normalised percent inhibition: 1.35 ± 17%
[3]; [9]
  normalised percent inhibition: 9.94 ± 12%
[3]; [10]
  normalised percent inhibition: 4.1 ± 16%
[3]; [11]
  normalised percent inhibition: 6.54 ± 4.6%
[3]; [12]
  normalised percent inhibition: 62.5 ± 8.3%
[3]; [13]
  normalised percent inhibition: 100.1 ± 0.94%
[3]; [14]
  normalised percent inhibition: 7.51 ± 17%
[3]; [15]
  normalised percent inhibition: 99.99 ± 0.56%
[3]; [16]
  normalised percent inhibition: -0.76 ± 26%
[3]; [17]
  normalised percent inhibition: 28.7 ± 16%
[3]; [18]
  normalised percent inhibition: 100.2 ± 0.56%
[3]; [19]
  normalised percent inhibition: 94.1 ± 5.9%
[3]; [20]
  normalised percent inhibition: 100.3 ± 0.16%
[3]; [21]
  normalised percent inhibition: 99.42 ± 0.97%
[3]; [22]
  normalised percent inhibition: 100.2 ± 0.16%
[3]; [23]
  normalised percent inhibition: 100.4 ± 0.49%
[3]; [24]
  normalised percent inhibition: 100.2 ± 0.41%
[3]; [25]
  normalised percent inhibition: 101.2 ± 0.28%

## CC#N.CC#N.CC#N.CC#N.F[B-](F)(F)F.[Cu+] [tetrakis(acetonitrile)copper(I) tetrafluoroborate]
[1]; [4]
  normalised percent inhibition: -13.8 ± 1.9%
[1]; [5]
  normalised percent inhibition: 12.4 ± 25%
[1]; [6]
  normalised percent inhibition: -2.77 ± 18%
[1]; [7]
  normalised percent inhibition: -10.8 ± 24%
[1]; [8]
  normalised percent inhibition: 12.9 ± 12%
[1]; [9]
  normalised percent inhibition: 16.7 ± 4.2%
[1]; [10]
  normalised percent inhibition: 11.3 ± 1.8%
[1]; [11]
  normalised percent inhibition: 2.75 ± 5%
[1]; [12]
  normalised percent inhibition: 75.8 ± 10%
[1]; [13]
  normalised percent inhibition: 102 ± 4%
[1]; [14]
  normalised percent inhibition: 13.4 ± 7.8%
[1]; [15]
  normalised percent inhibition: 105 ± 1.1%
[1]; [16]
  normalised percent inhibition: 9.12 ± 4.9%
[1]; [17]
  normalised percent inhibition: 3.41 ± 2.5%
[1]; [18]
  normalised percent inhibition: 106 ± 2.8%
[1]; [19]
  normalised percent inhibition: 106.2 ± 0.25%
[1]; [20]
  normalised percent inhibition: 107.5 ± 0.97%
[1]; [21]
  normalised percent inhibition: 106.7 ± 0.13%
[1]; [22]
  normalised percent inhibition: 106 ± 1.7%
[1]; [23]
  normalised percent inhibition: 106.6 ± 0.25%
[1]; [24]
  normalised percent inhibition: 107 ± 1.7%
[1]; [25]
  normalised percent inhibition: 106.5 ± 0.51%
[2]; [4]
  normalised percent inhibition: 2.08 ± 2.5%
[2]; [5]
  normalised percent inhibition: -0.342 ± 1.6%
[2]; [6]
  normalised percent inhibition: 3.53 ± 1.5%
[2]; [7]
  normalised percent inhibition: 4.37 ± 2.7%
[2]; [8]
  normalised percent inhibition: 0.453 ± 3.1%
[2]; [9]
  normalised percent inhibition: 0.553 ± 5.7%
[2]; [10]
  normalised percent inhibition: 1.88 ± 5.3%
[2]; [11]
  normalised percent inhibition: 9.53 ± 10%
[2]; [12]
  normalised percent inhibition: 5.84 ± 3.1%
[2]; [13]
  normalised percent inhibition: 40.1 ± 16%
[2]; [14]
  normalised percent inhibition: 91.9 ± 19%
[2]; [15]
  normalised percent inhibition: 92.9 ± 4.2%
[2]; [16]
  normalised percent inhibition: 158 ± 2.2%
[2]; [17]
  normalised percent inhibition: 158.7 ± 0.69%
[2]; [18]
  normalised percent inhibition: 101.8 ± 0.16%
[2]; [19]
  normalised percent inhibition: 160 ± 0.71%
[2]; [20]
  normalised percent inhibition: 101.8 ± 0.24%
[2]; [21]
  normalised percent inhibition: 159.9 ± 0.92%
[2]; [22]
  normalised percent inhibition: 101.9 ± 0.13%
[2]; [23]
  normalised percent inhibition: 161.2 ± 0.41%
[2]; [24]
  normalised percent inhibition: 101.9 ± 0.11%
[2]; [25]
  normalised percent inhibition: 161.65 ± 0.13%
[3]; metal salt concentration 15.6 nM, 100 mM HEPES buffer
  normalised percent inhibition: 31.6 ± 5.6%
[3]; metal salt concentration 31.25 nM, 100 mM HEPES buffer
  normalised percent inhibition: 19.4 ± 5.8%
[3]; metal salt concentration 62.5 nM, 100 mM HEPES buffer
  normalised percent inhibition: 94.7 ± 2.4%
[3]; [4]
  normalised percent inhibition: 98.82 ± 0.68%
[3]; metal salt concentration 0.000125 mM, 100 mM HEPES buffer
  normalised percent inhibition: 99.64 ± 0.61%
[3]; [5]
  normalised percent inhibition: 99.92 ± 0.95%
[3]; [6]
  normalised percent inhibition: 100.6 ± 0.27%
[3]; metal salt concentration 0.0005 mM, screening conditions buffer
  normalised percent inhibition: 19.7 ± 6.5%
[3]; [7]
  normalised percent inhibition: 100.1 ± 0.47%
[3]; metal salt concentration 0.001 mM, screening conditions buffer
  normalised percent inhibition: -12.4 ± 12%
[3]; [8]
  normalised percent inhibition: 6.86 ± 16%
[3]; [9]
  normalised percent inhibition: 13.5 ± 18%
[3]; [10]
  normalised percent inhibition: 8.64 ± 11%
[3]; [11]
  normalised percent inhibition: 7.18 ± 12%
[3]; [12]
  normalised percent inhibition: 100.5 ± 0.33%
[3]; metal salt concentration 0.025 mM, screening conditions buffer
  normalised percent inhibition: 20.1 ± 6.7%
[3]; [13]
  normalised percent inhibition: 100.3 ± 0.32%
[3]; [14]
  normalised percent inhibition: 3.96 ± 21%
[3]; [15]
  normalised percent inhibition: 100.5 ± 0.28%
[3]; [16]
  normalised percent inhibition: 24.1 ± 11%
[3]; [17]
  normalised percent inhibition: 31.5 ± 16%
[3]; metal salt concentration 0.25 mM, 100 mM HEPES buffer
  normalised percent inhibition: 100.3 ± 0.23%
[3]; [18]
  normalised percent inhibition: 100.5 ± 0.16%
[3]; [19]
  normalised percent inhibition: 56.9 ± 11%
[3]; [20]
  normalised percent inhibition: 100.3 ± 0.63%
[3]; [21]
  normalised percent inhibition: 99.7 ± 1.5%
[3]; [22]
  normalised percent inhibition: 100.5 ± 0.31%
[3]; [23]
  normalised percent inhibition: 100.3 ± 0.32%
[3]; [24]
  normalised percent inhibition: 100.3 ± 0.16%
[3]; [25]
  normalised percent inhibition: 100.4 ± 0.4%
[3]; metal salt concentration 10 mM, screening conditions buffer
  normalised percent inhibition: 100.1 ± 0.14%
[3]; metal salt concentration 20 mM, screening conditions buffer
  normalised percent inhibition: 100.2 ± 0.38%
